This test deals with IL-6. The test is described as follows: Human monocyte assay, LPS-stimulated IL-6. It counts as cell-based. As to conditions: human monocytes, 1 μg/ml LPS, 5 hours. How it is done: The assay was designed as in the reference, Physiol.
Peripheral blood mononuclear cells (hPBMC) were harvested from human blood and suspended in RPMI 1640 culture medium containing 10% FCS, 100 U/mL penicillin and […] streptomycin (assay medium). Monocytes in the hPBMCs were counted using a Coulter Counter following which the cells were resuspended at 2×10^5 monocytes/mL. A cell suspension containing 2×10^4 monocytes was aliquoted per well of a 96-well plate. Subsequently, the hPBMCs were incubated for 4-5 hours at 37° C., 5% CO2 (During the incubation, the monocytes adhered to the bottom of 96-well plastic culture plate). Following the incubation, the non-adherent lymphocytes were washed with assay medium and the adherent monocytes re-fed with assay medium. After a 48-hour incubation period (37° C., 5% CO2), monocytes were pretreated with various concentrations of representative compounds of present invention (refer to table 6 and 7) (prepared in DMSO) or vehicle (0.5% DMSO) for 30 minutes and stimulated with 1 μg/ml LPS (Escherchia coli 0111:B4, Sigma Chemical Co., St. Louis, Mo.). The incubation was continued for 5 hours at 37° C., 5% CO2. Supernatants were harvested, assayed for IL-6 and TNF-α by ELISA as described by the manufacturer (BD Biosciences, USA). Dexamethasone (10 μM) was used as standard for this assay. […] Biological results for both IL-6 and TNFα are indicated in Table 6 and Table 7 respectively.

Consider `CN(/N=C/c1cnc2ccc(-c3cccnc3)cn12)S(=O)(=O)c1ccc(Oc2ccccc2)cc1` [Example 70, (E)-N-methyl-4-phenoxy-N′-((6-(pyridin-3-yl)imidazo[1,2-a]pyridin-3-yl)methylene)benzenesulfonohydrazide], for which, where the note is “Monocyte”, the IC50 lay within 0.001 to 5 µM.

In the case of `Cc1ccc(F)cc1S(=O)(=O)N(C)/N=C/c1cnc2ccc(-c3cncc(C(F)(F)F)c3)cn12` [Example 139, (E)-5-fluoro-N, 2-dimethyl-N′-((6-(5-(trifluoromethyl)pyridin-3-yl)imidazo[1,2-a]pyridin-3-yl)methylene) benzenesulfonohydrazide], the IC50 (Monocyte) is at least 5 µM.

Regarding `COc1ccc(OC)c(S(=O)(=O)N(C)/N=C/c2cnc3ccc(-c4cccnc4)cn23)c1` [Example 52, (E)-2,5-dimethoxy-N-methyl-N′-((6-(pyridin-3-yl)imidazo[1,2-a]pyridin-3-yl)methylene) benzenesulfonohydrazide], under “Monocyte”, the IC50 is 0.001 to 5 µM.

For the setting “Monocyte”, `CN(/N=C/c1cnc2ccc(-c3cccnc3)cn12)S(=O)(=O)c1ccc(F)c(F)c1F` [Example 34, (E)-2,3,4-Trifluoro-N-methyl-N′-((6-(pyridin-3-yl)imidazo[1,2-a]pyridin-3-yl)methylene)benzenesulfonohydrazide] displayed an IC50 of 0.001 to 5 µM.

Take `CN(/N=C/c1cnc2ccc(-c3cccnc3)cn12)S(=O)(=O)c1ccc(-c2cc(C(F)(F)F)ccc2F)cc1` [Example 47, (E)-2′-Fluoro-N-methyl-N′-((6-(pyridin-3-yl)imidazo[1,2-a]pyridin-3-yl)methylene)-5′-(trifluoromethyl)biphenyl-4-sulfonohydrazide]: the IC50 (Monocyte) was at least 5 µM.

In the case of `Cc1cc(-c2cccnc2)cn2c(/C=N/N(C)S(=O)(=O)c3ccc(Cl)c([N+](=O)[O-])c3)cnc12` [Example 113, (E)-4-Chloro-N-methyl-N′-((8-methyl-6-(pyridin-3-yl)imidazo[1,2-a]pyridin-3-yl)methylene)-3-nitrobenzenesulfonohydrazide], under “Monocyte”, the IC50 lay within 0.001 to 5 µM.

Compound `Cc1ccc(F)cc1S(=O)(=O)N(C)/N=C/c1cnc2ccc(-c3cnc(F)c(C)c3)cn12` [Example 134, (E)-5-Fluoro-N′-((6-(6-fluoro-5-methylpyridin-3-yl)imidazo[1,2-a]pyridin-3-yl)methylene)-N,2-dimethylbenzenesulfonohydrazide] showed an IC50 (Monocyte) of 0.001 to 5 µM.

Compound `Cc1cc(-c2cccnc2)cn2c(/C=N/N(C)S(=O)(=O)c3ccccc3C#N)cnc12` [Example 104, (E)-2-cyano-N-methyl-N′-((8-methyl-6-(pyridin-3-yl)imidazo[1,2-a]pyridin-3-yl)methylene)benzenesulfonohydrazide] showed an IC50 (Monocyte) of at least 5 µM.

For `CN(/N=C/c1cnc2ccc(-c3cccnc3)cn12)S(=O)(=O)c1ccc(Cl)c([N+](=O)[O-])c1` [Example 74, (E)-4-chloro-N-methyl-3-nitro-N′-((6-(pyridin-3-yl)imidazo[1,2-a]pyridin-3-yl)methylene) benzenesulfonohydrazide], under “Monocyte”, the IC50 lay in the range of 0.001 to 5 µM.

Where the note is “Monocyte”, `Cc1cc(-c2cccnc2)cn2c(/C=N/N(C)S(=O)(=O)c3cccc(C#N)c3)cnc12` [Example 106, (E)-3-cyano-N-methyl-N′-((8-methyl-6-(pyridin-3-yl)imidazo[1,2-a]pyridin-3-yl)methylene)benzenesulfonohydrazide] displayed a 50% inhibitory concentration (IC50) of at least 5 µM.

Compound `CN(/N=C/c1cnc2ccc(-c3cccnc3)cn12)S(=O)(=O)c1ccc(-c2ccccc2)cc1` [Example 72, (E)-N-methyl-N′-((6-(pyridin-3-yl)imidazo[1,2-a]pyridin-3-yl)methylene)biphenyl-4-sulfonohydrazide] yielded an IC50 (Monocyte) of at least 5 µM.

As to `CN(N=Cc1cnc2ccc(Br)cn12)C(=S)NCCN1CCOCC1` [Example 151, 2-((6-bromoimidazo[1,2-a]pyridin-3-yl)methylene)-1-methyl-N-(2-morpholinoethyl) hydrazinecarbothioamide], the IC50 was 0.001 to 5 µM.

Consider `CN(/N=C/c1cnc2ccc(-c3cccnc3)cn12)S(=O)(=O)c1cc(C(F)(F)F)ccc1N1CCOCC1` [Example 62, (E)-N-methyl-2-morpholino-N′-((6-(pyridin-3-yl)imidazo[1,2-a]pyridin-3-yl)methylene)-5-(trifluoromethyl)benzenesulfonohydrazide], for which the IC50 (Monocyte) is 0.001 to 5 µM.

Consider `CN(/N=C/c1cnc2ccc(-c3cccnc3)cn12)S(=O)(=O)c1cc(Br)ccc1Br` [Example 51, (E)-2,5-dibromo-N-methyl-N′-((6-(pyridin-3-yl)imidazo[1,2-a]pyridin-3-yl)methylene) benzenesulfonohydrazide], for which, under “Monocyte”, the IC50 lay in the range of 0.001 to 5 µM.

`CN(/N=C/c1cnc2ccc(-c3cccnc3)cn12)S(=O)(=O)c1ccc(N2CCOCC2)nc1` [Example 66, (E)-N-methyl-6-morpholino-N′-((6-(pyridin-3-yl)imidazo[1,2-a]pyridin-3-yl)methylene) pyridine-3-sulfonohydrazide]: where the note is “Monocyte”, the concentration for half-maximal inhibition (IC50) lay within 0.001 to 5 µM.

Where the note is “Monocyte”, `CN(/N=C/c1cnc2ccc(-c3cccnc3)cn12)S(=O)(=O)c1cc(F)c(Br)cc1F` [Example 35, (E)-4-bromo-2,5-difluoro-N-methyl-N′-((6-(pyridin-3-yl)imidazo[1,2-a]pyridin-3-yl)methylene)benzenesulfonohydrazide] showed an IC50 of 0.001 to 5 µM.

`CN(/N=C/c1cnc2ccc(-c3cccnc3)cn12)S(=O)(=O)c1cccnc1` [Example 69, (E)-N-methyl-N′-((6-(pyridin-3-yl)imidazo[1,2-a]pyridin-3-yl)methylene) pyridine-3-sulfonohydrazide] displayed an IC50 (Monocyte) of 0.001 to 5 µM.

Under “Monocyte”, `CN(/N=C/c1cnc2ccc(-c3cccnc3)cn12)C(=O)NCc1ccccc1` [Example 141, (E)-N-benzyl-1-methyl-2-((6-(pyridin-3-yl)imidazo[1,2-a]pyridin-3-yl)methylene)hydrazinecarboxamide] registered an IC50 of 0.001 to 5 µM.

With `COc1ccc(-c2ccc3ncc(/C=N/N(C)S(=O)(=O)c4cc(F)ccc4C)n3c2)cn1` [Example 137, (E)-5-fluoro-N′-((6-(6-methoxypyridin-3-yl)imidazo[1,2-a]pyridin-3-yl)methylene)-N,2-dimethylbenzenesulfonohydrazide], the concentration for half-maximal inhibition (IC50) (Monocyte) is at least 5 µM.

`CCCCCCS(=O)(=O)N(C)/N=C/c1cnc2ccc(-c3cccnc3)cn12` [Example 61, (E)-N-methyl-N′-((6-(pyridin-3-yl)imidazo[1,2-a]pyridin-3-yl)methylene) hexane-1-sulfonohydrazide] yielded an IC50 (Monocyte) of 0.001 to 5 µM.

Regarding `Cc1ccc(F)cc1S(=O)(=O)N(C)/N=C/c1cnc2ccc(-c3cccnc3F)cn12` [Example 87, (E)-5-Fluoro-N′-((6-(2-fluoropyridin-3-yl)imidazo[1,2-a]pyridin-3-yl)methylene)-N,2-dimethylbenzenesulfonohydrazide], the 50% inhibitory concentration (IC50) (Monocyte) was in the range of 0.001 to 5 µM.

For `CN(/N=C/c1cnc2ccc(-c3cccnc3)cn12)S(=O)(=O)c1cc(F)ccc1F` [Example 44, (E)-2,5-difluoro-N-methyl-N′-((6-(pyridin-3-yl)imidazo[1,2-a]pyridin-3-yl)methylene) benzenesulfonohydrazide], the IC50 (Monocyte) lay in the range of 0.001 to 5 µM.

As for `Cc1cccc(S(=O)(=O)N(C)/N=C/c2cnc3ccc(-c4cccnc4)c(C)n23)c1` [Example 127, (E)-N,3-dimethyl-N′-((5-methyl-6-(pyridin-3-yl)imidazo[1,2-a]pyridin-3-yl)methylene)benzenesulfonohydrazide], the IC50 (Monocyte) was at least 5 µM.

A word on the IC50: it is the concentration at which inhibition is half-maximal.

For the origin of these results see patent US8741932B2, “Imidazopyridine derivatives” (Piramal Enterprises Limited, priority 2009, dated 2014).
